PubChem BioAssay (NCI)
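Dose response: 5 concentrations. Exposure: 48 h. Format: 96-well plates. Endpoint: linear interpolation; highest concentration if not reached. The concentration for 50% growth inhibition is given as GI50. At the TGI there is no net growth.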

Key:
Assay in all cases: DTP human tumour cell line panel, 48 h
SW-620 colon = tested on: SW-620 colon
NCI-H460 lung = tested on: NCI-H460 lung
SK-MEL-28 melanoma = tested on: SK-MEL-28 melanoma
UO-31 renal = tested on: UO-31 renal
DU-145 prostate = tested on: DU-145 prostate
SF-295 CNS = tested on: SF-295 CNS
SK-OV-3 ovarian = tested on: SK-OV-3 ovarian
U251 CNS = tested on: U251 CNS
CAKI-1 renal = tested on: CAKI-1 renal
SNB-19 CNS = tested on: SNB-19 CNS
LOX IMVI melanoma = tested on: LOX IMVI melanoma
NCI-H23 lung = tested on: NCI-H23 lung
CCRF-CEM leukemia = tested on: CCRF-CEM leukemia
IGROV1 ovarian = tested on: IGROV1 ovarian
SF-539 CNS = tested on: SF-539 CNS
NCI-H522 lung = tested on: NCI-H522 lung
SNB-75 CNS = tested on: SNB-75 CNS
A549 NSCLC = tested on: A549 NSCLC
MALME-3M melanoma = tested on: MALME-3M melanoma
NCI/ADR-RES ovarian = tested on: NCI/ADR-RES ovarian
HCT-116 colon = tested on: HCT-116 colon
MOLT-4 leukemia = tested on: MOLT-4 leukemia
MDA-MB-435 = tested on: MDA-MB-435
RXF 393 renal = tested on: RXF 393 renal
OVCAR-4 ovarian = tested on: OVCAR-4 ovarian
RPMI-8226 leukemia = tested on: RPMI-8226 leukemia
OVCAR-8 ovarian = tested on: OVCAR-8 ovarian
PC-3 prostate = tested on: PC-3 prostate
COLO 205 colon = tested on: COLO 205 colon
MDA-MB-231 breast = tested on: MDA-MB-231 breast
HT29 colon = tested on: HT29 colon
NCI-H226 lung = tested on: NCI-H226 lung
BT-549 breast = tested on: BT-549 breast
K-562 leukemia = tested on: K-562 leukemia
OVCAR-3 ovarian = tested on: OVCAR-3 ovarian
KM12 colon = tested on: KM12 colon
HL-60(TB) leukemia = tested on: HL-60(TB) leukemia
786-0 renal = tested on: 786-0 renal
SF-268 CNS = tested on: SF-268 CNS
M14 melanoma = tested on: M14 melanoma
HCC-2998 colon = tested on: HCC-2998 colon
HS 578T breast = tested on: HS 578T breast
HOP-62 NSCLC = tested on: HOP-62 NSCLC
OVCAR-5 ovarian = tested on: OVCAR-5 ovarian
UACC-62 melanoma = tested on: UACC-62 melanoma
T-47D breast = tested on: T-47D breast
ACHN renal = tested on: ACHN renal
HCT-15 colon = tested on: HCT-15 colon
SN12C renal = tested on: SN12C renal
UACC-257 melanoma = tested on: UACC-257 melanoma
HOP-92 NSCLC = tested on: HOP-92 NSCLC
EKVX NSCLC = tested on: EKVX NSCLC
SK-MEL-5 melanoma = tested on: SK-MEL-5 melanoma
MCF7 breast = tested on: MCF7 breast
A498 renal = tested on: A498 renal
SR leukemia = tested on: SR leukemia
TK-10 renal = tested on: TK-10 renal
SK-MEL-2 melanoma = tested on: SK-MEL-2 melanoma

CN1CCN(c2ccc3[nH]c(C4=C(O)C(=O)[C@@H]5C(=C4O)N=C(CO)N5C)nc3n2)CC1
TGI (SW-620 colon): > 100 µM | TGI (NCI-H460 lung): > 100 µM | TGI (SK-MEL-28 melanoma): > 100 µM | TGI (UO-31 renal): > 100 µM | TGI (DU-145 prostate): > 100 µM | TGI (SF-295 CNS): > 100 µM | TGI (SK-OV-3 ovarian): > 100 µM | TGI (U251 CNS): > 100 µM | TGI (CAKI-1 renal): > 100 µM | TGI (SNB-19 CNS): > 100 µM | TGI (LOX IMVI melanoma): > 100 µM | TGI (NCI-H23 lung): > 100 µM | TGI (CCRF-CEM leukemia): > 100 µM | TGI (IGROV1 ovarian): > 100 µM | TGI (SF-539 CNS): > 100 µM | TGI (NCI-H522 lung): > 100 µM | TGI (SNB-75 CNS): > 100 µM | TGI (A549 NSCLC): > 100 µM | TGI (MALME-3M melanoma): > 100 µM | TGI (NCI/ADR-RES ovarian): > 100 µM | TGI (HCT-116 colon): > 100 µM | TGI (MOLT-4 leukemia): > 100 µM | TGI (MDA-MB-435): > 100 µM | TGI (RXF 393 renal): > 100 µM | TGI (OVCAR-4 ovarian): > 100 µM | TGI (RPMI-8226 leukemia): > 100 µM | TGI (OVCAR-8 ovarian): > 100 µM | TGI (PC-3 prostate): > 100 µM | TGI (COLO 205 colon): > 100 µM | TGI (MDA-MB-231 breast): > 100 µM | TGI (HT29 colon): > 100 µM | TGI (NCI-H226 lung): > 100 µM | TGI (BT-549 breast): > 100 µM | TGI (K-562 leukemia): > 100 µM | TGI (OVCAR-3 ovarian): > 100 µM | TGI (KM12 colon): > 100 µM | TGI (HL-60(TB) leukemia): > 100 µM | TGI (786-0 renal): > 100 µM | TGI (SF-268 CNS): > 100 µM | TGI (M14 melanoma): > 100 µM | TGI (HCC-2998 colon): > 100 µM | TGI (HS 578T breast): > 100 µM | TGI (HOP-62 NSCLC): > 100 µM | TGI (OVCAR-5 ovarian): > 100 µM | TGI (UACC-62 melanoma): > 100 µM | TGI (T-47D breast): > 100 µM | TGI (ACHN renal): > 100 µM | TGI (HCT-15 colon): > 100 µM | TGI (SN12C renal): > 100 µM | TGI (UACC-257 melanoma): > 100 µM | TGI (HOP-92 NSCLC): > 100 µM | TGI (EKVX NSCLC): > 100 µM

C/C(=N\O)c1cccc(Nc2cc(-c3ccccc3)nc3c(O)cccc23)c1
GI50 (SW-620 colon): 0.751 µM | TGI (SW-620 colon): > 42.9 µM | GI50 (NCI-H460 lung): 2.49 µM | TGI (NCI-H460 lung): 17.2 µM | GI50 (SK-MEL-28 melanoma): 10.9 µM | TGI (SK-MEL-28 melanoma): 27.8 µM | GI50 (UO-31 renal): 11.2 µM | TGI (UO-31 renal): 30.4 µM | GI50 (DU-145 prostate): 2.96 µM | TGI (DU-145 prostate): 16.6 µM | GI50 (SF-295 CNS): 0.671 µM | GI50 (SK-OV-3 ovarian): 2.62 µM | TGI (SK-OV-3 ovarian): 25 µM | GI50 (U251 CNS): 2.35 µM | TGI (U251 CNS): 15.8 µM | GI50 (SK-MEL-5 melanoma): 1.53 µM | TGI (SK-MEL-5 melanoma): 16 µM | GI50 (CAKI-1 renal): 2.78 µM | TGI (CAKI-1 renal): > 37.3 µM | GI50 (SNB-19 CNS): 1.13 µM | TGI (SNB-19 CNS): 9.42 µM | GI50 (LOX IMVI melanoma): 3.12 µM | TGI (LOX IMVI melanoma): 19.7 µM | GI50 (NCI-H23 lung): 4.2 µM | TGI (NCI-H23 lung): 20.2 µM | GI50 (CCRF-CEM leukemia): 2.13 µM | TGI (CCRF-CEM leukemia): > 26.5 µM | GI50 (MCF7 breast): 0.354 µM | TGI (MCF7 breast): 46.5 µM | GI50 (IGROV1 ovarian): 2.41 µM | TGI (IGROV1 ovarian): 18 µM | GI50 (SF-539 CNS): 2.2 µM | TGI (SF-539 CNS): 9.85 µM | GI50 (NCI-H522 lung): 1.85 µM | TGI (NCI-H522 lung): 9.36 µM | GI50 (SNB-75 CNS): 3.21 µM | TGI (SNB-75 CNS): 28.4 µM | GI50 (A549 NSCLC): 2.37 µM | TGI (A549 NSCLC): 23.5 µM | GI50 (MALME-3M melanoma): 5.67 µM | TGI (MALME-3M melanoma): 25.4 µM | GI50 (NCI/ADR-RES ovarian): 1.37 µM | TGI (NCI/ADR-RES ovarian): > 23.5 µM | GI50 (A498 renal): 3.31 µM | TGI (A498 renal): 18.1 µM | GI50 (HCT-116 colon): 2.41 µM | TGI (HCT-116 colon): 15.9 µM | GI50 (MDA-MB-435): 0.271 µM | TGI (MDA-MB-435): 2.01 µM | GI50 (RXF 393 renal): 1.62 µM | TGI (RXF 393 renal): 6.42 µM | GI50 (OVCAR-4 ovarian): 8.19 µM | TGI (OVCAR-4 ovarian): 37.4 µM | GI50 (RPMI-8226 leukemia): 2.46 µM | TGI (RPMI-8226 leukemia): 7.98 µM | GI50 (OVCAR-8 ovarian): 4.24 µM | TGI (OVCAR-8 ovarian): 39 µM | GI50 (PC-3 prostate): 1.94 µM | TGI (PC-3 prostate): 19.9 µM | GI50 (COLO 205 colon): 10.6 µM | TGI (COLO 205 colon): 26.7 µM | GI50 (MDA-MB-231 breast): 2.34 µM | TGI (MDA-MB-231 breast): 13.3 µM | GI50 (HT29 colon): 12.3 µM | TGI (HT29 colon): 42.7 µM | GI50 (NCI-H226 lung): 7.37 µM | TGI (NCI-H226 lung): 37.5 µM | GI50 (BT-549 breast): 11.8 µM | TGI (BT-549 breast): 52.3 µM | GI50 (K-562 leukemia): 0.581 µM | TGI (K-562 leukemia): > 53.5 µM | GI50 (OVCAR-3 ovarian): 1.1 µM | TGI (OVCAR-3 ovarian): 14.5 µM | GI50 (KM12 colon): 0.836 µM | TGI (KM12 colon): 22.9 µM | GI50 (HL-60(TB) leukemia): 4.71 µM | TGI (HL-60(TB) leukemia): > 66.3 µM | GI50 (786-0 renal): 3.07 µM | TGI (786-0 renal): 11.5 µM | GI50 (SF-268 CNS): 4.38 µM | TGI (SF-268 CNS): 39.5 µM | GI50 (M14 melanoma): 3.47 µM | TGI (M14 melanoma): 18.8 µM | GI50 (HCC-2998 colon): 3.68 µM | TGI (HCC-2998 colon): 14.2 µM | GI50 (SR leukemia): 0.415 µM | GI50 (HS 578T breast): 4.34 µM | TGI (HS 578T breast): > 60 µM | GI50 (TK-10 renal): 8.44 µM | TGI (TK-10 renal): 47.7 µM | GI50 (HOP-62 NSCLC): 3.09 µM | TGI (HOP-62 NSCLC): 15 µM | GI50 (OVCAR-5 ovarian): 12.5 µM | TGI (OVCAR-5 ovarian): 32.2 µM | GI50 (UACC-62 melanoma): 1.64 µM | TGI (UACC-62 melanoma): 16.8 µM | GI50 (T-47D breast): 2.36 µM | TGI (T-47D breast): 30.5 µM | GI50 (SK-MEL-2 melanoma): 8.34 µM | TGI (SK-MEL-2 melanoma): 27.2 µM | GI50 (ACHN renal): 6.57 µM | TGI (ACHN renal): 22.5 µM | GI50 (HCT-15 colon): 2.77 µM | TGI (HCT-15 colon): 20.9 µM | GI50 (SN12C renal): 3.58 µM | TGI (SN12C renal): 17.2 µM | GI50 (UACC-257 melanoma): 6.28 µM | TGI (UACC-257 melanoma): 25.4 µM | GI50 (HOP-92 NSCLC): 1.91 µM | TGI (HOP-92 NSCLC): 13.7 µM | GI50 (EKVX NSCLC): 10.3 µM | TGI (EKVX NSCLC): 56.7 µM
